Results on 31 compounds are retold here after patent US7998995B2 (Exelixis Patent Company LLC, priority 2006, dated 2011).

Usually EC50 stands for the concentration that produces a half-maximal response.

One experiment relates to T1, LXR.
T1 construct: fused on or other part: GST fused to the LBD in the FRET assay
The experiment can be described thus: Measured EC50 or IC50 for LXR (LXRα and/or LXRβ; assay and subtype not given). The following applies: IC50 or EC50 class, subtype not specified. Here is the method: (§1) Measured EC50 or IC50 for LXR, and FXR for Compounds of the Invention
(§2) LXR and FXR activities for various compounds of the invention are presented in the following table; those compounds with EC50 or IC50 values <10 μM for at least one of LXRα, LXRβ or FXR are considered to be active. In the following Table, IC50 or EC50 data is represented as follows: A<1 μM, B=1-10 μm, and C>10 μM.

The target in another experiment is T2, FXR (Homo sapiens, UniProt Q96RI1).
T2 sequence (Q96RI1 1-472 isoform Q96RI1-2): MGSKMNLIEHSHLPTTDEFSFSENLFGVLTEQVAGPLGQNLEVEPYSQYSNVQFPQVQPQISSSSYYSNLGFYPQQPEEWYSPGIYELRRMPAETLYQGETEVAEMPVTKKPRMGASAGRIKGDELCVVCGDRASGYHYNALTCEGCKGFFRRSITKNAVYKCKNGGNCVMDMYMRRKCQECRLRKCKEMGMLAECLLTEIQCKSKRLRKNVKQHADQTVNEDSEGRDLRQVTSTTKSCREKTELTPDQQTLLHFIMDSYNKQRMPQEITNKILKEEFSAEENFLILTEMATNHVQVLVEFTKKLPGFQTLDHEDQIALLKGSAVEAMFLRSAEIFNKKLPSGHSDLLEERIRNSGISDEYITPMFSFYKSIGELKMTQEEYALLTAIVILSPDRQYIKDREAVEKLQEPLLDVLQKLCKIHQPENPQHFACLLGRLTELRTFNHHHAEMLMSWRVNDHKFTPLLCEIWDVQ
The experiment can be described thus: Measured EC50 or IC50 for FXR (assay not given). The settings on record: IC50 or EC50 class; assay not specified. Here is the method:
as §1, §2

Take `CC(C)(O)c1cc(COc2ccc(-c3ccc(C(=O)O)cc3Cl)cc2)n(-c2c(Cl)cccc2Cl)n1` [Example 906, 2-chloro-4′-({[1-(2,6-dichlorophenyl)-3-(1-hydroxy-1-methylethyl)-1H-pyrazol-5-yl]methyl}oxy)biphenyl-4-carboxylic acid]: the EC50 in the experiment with LXR and at FXR was 1000 to 10000 nM each time. Regarding `CC(C)c1cc(COc2ccc(-c3ccc(C(=O)O)cc3Cl)cc2)n(-c2c(Cl)cccc2Cl)n1` [Example 907, 2-chloro-4′-({[1-(2,6-dichlorophenyl)-3-(1-methylethyl)-1H-pyrazol-5-yl]methyl}oxy)biphenyl-4-carboxylic acid], the EC50 in the experiment on LXR was 1000 to 10000 nM; at FXR, less than 1000 nM. Take `CS(=O)(=O)c1cccc(-c2ccc(-n3cc(-c4ccsc4)nc3-c3ccccc3Cl)c(Cl)c2)c1` [Example 997, 1-(3-chloro-3′-(methylsulfonyl)biphenyl-4-yl)-2-(2-chlorophenyl)-4-(thiophen-3-yl)-1H-imidazole]: the EC50 in the experiment on LXR is less than 1000 nM. For `CS(=O)(=O)c1cccc(-c2ccc(-n3cc(N4CCC4)nc3-c3ccccc3C(F)(F)F)cc2)c1` [Example 998, 4-(azetidin-1-yl)-1-(3′-(methylsulfonyl)biphenyl-4-yl)-2-(2-(trifluoromethyl)phenyl)-1H-imidazole], in the experiment with LXR, the EC50 was less than 1000 nM. `CS(=O)(=O)c1cccc(-c2ccc(-n3cc(-n4cccn4)nc3-c3c(Cl)cccc3Cl)cc2)c1` [Example 999, 1-{2-(2,6-dichlorophenyl)-1-[3′-(methylsulfonyl)biphenyl-4-yl]-1H-imidazol-4-yl}-1H-pyrazole] gave an EC50 in the experiment with LXR of less than 1000 nM. In the experiment on LXR, `Cc1nccn1-c1cn(-c2ccc(-c3cccc(S(C)(=O)=O)c3)cc2)c(-c2c(Cl)cccc2Cl)n1` [Example 1001, 2′-(2,6-dichlorophenyl)-2-methyl-1′-[3′-(methylsulfonyl)biphenyl-4-yl]-1′H-1,4′-biimidazole] gave an EC50 of less than 1000 nM. For `CS(=O)(=O)c1cccc(-c2ccc(-n3cc(N4CCCC4)nc3-c3c(Cl)cccc3Cl)cc2)c1` [Example 1002, 2-(2,6-dichlorophenyl)-1-[3′-(methylsulfonyl)biphenyl-4-yl]-4-(pyrrolidin-1-yl)-1H-imidazole], the EC50 with LXR is less than 1000 nM.

The compound `CS(=O)(=O)c1cccc(-c2ccc(-n3cc(N4CCC(O)C4)nc3-c3ccccc3C(F)(F)F)cc2)c1` (stereo not drawn) [Example 1003, 1-(1-(3′-(methylsulfonyl)biphenyl-4-yl)-2-(2-(trifluoromethyl)phenyl)-1H-imidazol-4-yl)pyrrolidin-3-ol] yielded an EC50 with LXR of less than 1000 nM. For `CS(=O)(=O)c1cccc(-c2ccc(-n3cc(N4CCCCC4)nc3-c3ccccc3C(F)(F)F)cc2)c1` [Example 1004, 1-(1-(3′-(methylsulfonyl)biphenyl-4-yl)-2-(2-(trifluoromethyl)phenyl)-1H-imidazol-4-yl)piperidine], the EC50 in the experiment on LXR is less than 1000 nM.

For the compound `CS(=O)(=O)c1cccc(-c2ccc(-n3cc(N4CCCC4=O)nc3-c3c(Cl)cccc3Cl)cc2)c1` [Example 1005, 1-{2-(2,6-dichlorophenyl)-1-[3′-(methylsulfonyl)biphenyl-4-yl]-1H-imidazol-4-yl}pyrrolidin-2-one], in the experiment on LXR, the EC50 was less than 1000 nM.

Consider `CS(=O)(=O)c1cccc(-c2ccc(-n3cc(-n4cnc(C#N)c4)nc3-c3ccccc3C(F)(F)F)cc2)c1` [Example 1008, 1′-(3′-(methylsulfonyl)biphenyl-4-yl)-2′-(2-(trifluoromethyl)phenyl)-1′H-1,4′-biimidazole-4-carbonitrile], for which the EC50 in the experiment on LXR was less than 1000 nM. Turning to `CS(=O)(=O)c1cccc(-c2ccc(-n3cc(-n4cnc(CO)c4)nc3-c3ccccc3C(F)(F)F)cc2)c1` [Example 1009, (1′-(3′-(methylsulfonyl)biphenyl-4-yl)-2′-(2-(trifluoromethyl)phenyl)-1′H-1,4′-biimidazol-4-yl)methanol], the EC50 with LXR was less than 1000 nM. In the experiment with LXR, `CS(=O)(=O)c1cccc(-c2ccc(-n3cc(-n4cccc4C#N)nc3-c3ccccc3C(F)(F)F)cc2)c1` [Example 1010] returned a concentration for a half-maximal effect (EC50) of less than 1000 nM.

Turning to `CS(=O)(=O)c1cccc(-c2ccc(-n3cc(-c4ncco4)nc3-c3ccccc3C(F)(F)F)cc2)c1` [Example 1011, 2-(1-(3′-(methylsulfonyl)biphenyl-4-yl)-2-(2-(trifluoromethyl)phenyl)-1H-imidazol-4-yl)oxazole], the EC50 with LXR is greater than 10000 nM. Still for that read-out and setting: as for `CS(=O)(=O)c1cccc(-c2ccc(-n3cc(-c4ncco4)nc3-c3ccccc3Cl)c(Cl)c2)c1` [Example 1012, 2-(1-(3-chloro-3′-(methylsulfonyl)biphenyl-4-yl)-2-(2-chlorophenyl)-1H-imidazol-4-yl)oxazole], the figure is 1000 to 10000 nM; as for `Cc1csc(-c2cn(-c3ccc(-c4cccc(S(C)(=O)=O)c4)cc3)c(-c3c(Cl)cccc3Cl)n2)n1` [Example 1013, 2-(2-(2,6-dichlorophenyl)-1-(3′-(methylsulfonyl)biphenyl-4-yl)-1H-imidazol-4-yl)-4-methylthiazole], less than 1000 nM. `CS(=O)(=O)c1cccc(-c2ccc(-n3cc(-c4nccs4)nc3-c3c(Cl)cccc3Cl)cc2)c1` [Example 1014, 2-(2-(2,6-dichlorophenyl)-1-(3′-(methylsulfonyl)biphenyl-4-yl)-1H-imidazol-4-yl)thiazole] had an EC50 with LXR of less than 1000 nM.

Take `CS(=O)(=O)c1cccc(-c2ccc(-n3cc([C@H]4CCCN4)nc3-c3ccccc3C(F)(F)F)cc2)c1` [Example 1016, 1-(3′-(methylsulfonyl)biphenyl-4-yl)-4-((R)-pyrrolidin-2-yl)-2-(2-(trifluoromethyl)phenyl)-1H-imidazole]: the EC50 with LXR is less than 1000 nM. On to `CC(C)(C)OC(=O)N1CCC[C@@H]1c1cn(-c2ccc(-c3cccc(S(C)(=O)=O)c3)cc2)c(-c2ccccc2C(F)(F)F)n1` [Example 1017, (R)-tert-butyl 2-(1-(3′-(methylsulfonyl)biphenyl-4-yl)-2-(2-(trifluoromethyl)phenyl)-1H-imidazol-4-yl)pyrrolidine-1-carboxylate], for which the EC50 in the experiment with LXR was less than 1000 nM. Regarding `CC(=O)N1CCC[C@@H]1c1cn(-c2ccc(-c3cccc(S(C)(=O)=O)c3)cc2)c(-c2ccccc2C(F)(F)F)n1` [Example 1019, 1-((2R)-2-(1-(3′-(methylsulfonyl)biphenyl-4-yl)-2-(2-(trifluoromethyl)phenyl)-1H-imidazol-4-yl)pyrrolidin-1-yl)ethanone], the EC50 in the experiment on LXR is greater than 10000 nM. `CS(=O)(=O)c1cccc(-c2ccc(-n3cc(-c4n[nH]c(=O)o4)nc3-c3ccccc3C(F)(F)F)cc2)c1` [Example 1023, 5-(1-(3′-(methylsulfonyl)biphenyl-4-yl)-2-(2-(trifluoromethyl)phenyl)-1H-imidazol-4-yl)-1,3,4-oxadiazol-2(3H)-one] showed an EC50 with LXR of less than 1000 nM. Still for that read-out and setting: as for `Cc1nnc(-c2cn(-c3ccc(-c4cccc(S(C)(=O)=O)c4)cc3)c(-c3ccccc3C(F)(F)F)n2)o1` [Example 1024, 2-methyl-5-(1-(3′-(methylsulfonyl)biphenyl-4-yl)-2-(2-(trifluoromethyl)phenyl)-1H-imidazol-4-yl)-1,3,4-oxadiazole], the figure is less than 1000 nM.

With `CS(=O)(=O)c1cccc(-c2ccc(-n3cc(-c4nnc(C(F)(F)F)o4)nc3-c3ccccc3Cl)c(Cl)c2)c1` [Example 1025, 2-(1-(3-chloro-3′-(methylsulfonyl)biphenyl-4-yl)-2-(2-chlorophenyl)-1H-imidazol-4-yl)-5-(trifluoromethyl)-1,3,4-oxadiazole], the EC50 in the experiment on LXR was less than 1000 nM.

In turn, `Cc1coc(-c2cn(-c3ccc(-c4cccc(S(C)(=O)=O)c4)cc3)c(-c3ccccc3C(F)(F)F)n2)n1` [Example 1026, methyl-2-(1-(3′-(methylsulfonyl)biphenyl-4-yl)-2-(2-(trifluoromethyl)phenyl)-1H-imidazol-4-yl)oxazole] came in with an EC50 in the experiment with LXR of less than 1000 nM. For the compound `CS(=O)(=O)c1cccc(-c2ccc(-n3cc(-c4cnco4)nc3-c3ccccc3Cl)c(Cl)c2)c1` [Example 1028, 5-(1-(3-chloro-3′-(methylsulfonyl)biphenyl-4-yl)-2-(2-chlorophenyl)-1H-imidazol-4-yl)oxazole], in the experiment with LXR, the EC50 is less than 1000 nM.

Consider `CS(=O)(=O)c1cccc(-c2ccc(-n3cc(C4(C#N)CCOCC4)nc3-c3ccccc3C(F)(F)F)cc2)c1` [Example 1031, 4-(1-(3′-methylsulfonyl)biphenyl-4-yl)-2-(2-(trifluoromethyl)phenyl-1H-imidazol-4-yl)tetrahydro-2H-pyran-4-carbonitrile], for which the EC50 with LXR was less than 1000 nM. `Cc1nc(-c2cn(-c3ccc(-c4cccc(S(C)(=O)=O)c4)cc3)c(-c3ccccc3C(F)(F)F)n2)no1` [Example 1032]: the EC50 in the experiment on LXR was less than 1000 nM. The same measure, in the same setting: as for `Cn1oc(=O)nc1-c1cn(-c2ccc(-c3cccc(S(C)(=O)=O)c3)cc2)c(-c2ccccc2C(F)(F)F)n1` [Example 1034], the figure is less than 1000 nM. As to `CS(=O)(=O)c1cccc(-c2ccc(-n3cc(-c4nc(=O)o[nH]4)nc3-c3ccccc3C(F)(F)F)cc2)c1` [Example 1035], the concentration giving a half-maximal response (EC50) in the experiment with LXR was less than 1000 nM. Compound `Cn1oc(=S)nc1-c1cn(-c2ccc(-c3cccc(S(C)(=O)=O)c3)cc2)c(-c2ccccc2C(F)(F)F)n1` [Example 1036] yielded an EC50 in the experiment with LXR of less than 1000 nM. Same read-out and setting: as for `Cc1nsc(-c2cn(-c3ccc(-c4cccc(S(C)(=O)=O)c4)cc3)c(-c3ccccc3C(F)(F)F)n2)n1` [Example 1037], the figure is greater than 10000 nM.
